Source: US10759793B2, “2-(pyrazolopyridin-3-yl)pyrimidine derivatives as JAK inhibitors” (ALMIRALL, S.A., priority 2015, dated 2020)

Key:
Assay type in all cases: biochemical
[1] = molecular target: JAK3 (Homo sapiens (Human), UniProt P52333); assay: In vitro JAK kinase assay (TR-FRET), JAK3; details: catalytic domain aa 795-1124, GST-fusion; ATP 0.6 μM; peptide 140 nM; 30 minutes at room temperature
Description: (§1) Compounds were screened for their ability to inhibit JAK1, JAK2 and JAK3 using the assays as indicated below. […] The enzymatic activity was assayed using as substrate a biotinylated peptide, poly (GT)-Biotin (CisBio). […] The degree of phosphorylation was detected by TR-FRET (time-resolved fluorescence energy transfer). […] The enzymatic reactions took place for 30 minutes at room temperature. […] Incubate for 3 h and read on Victor 2V spectrofluorometer (Perkin Elmer) set to read fluorescence resonance energy transfer.

[2] = molecular target: JAK2 (Homo sapiens (Human), UniProt O60674); assay: In vitro JAK kinase assay (TR-FRET), JAK2; details: catalytic domain aa 826-1132, GST-fusion; ATP 0.2 μM; peptide 20 nM; 30 minutes at room temperature
Description: as §1

[3] = molecular target: JAK1 (Homo sapiens (Human), UniProt P23458); assay: In vitro JAK kinase assay (TR-FRET), JAK1; details: catalytic domain aa 850-1154, GST-fusion; ATP 3 μM; peptide 60 nM; 30 minutes at room temperature
Description: as §1

JAK2, sequence (O60674 826-1132): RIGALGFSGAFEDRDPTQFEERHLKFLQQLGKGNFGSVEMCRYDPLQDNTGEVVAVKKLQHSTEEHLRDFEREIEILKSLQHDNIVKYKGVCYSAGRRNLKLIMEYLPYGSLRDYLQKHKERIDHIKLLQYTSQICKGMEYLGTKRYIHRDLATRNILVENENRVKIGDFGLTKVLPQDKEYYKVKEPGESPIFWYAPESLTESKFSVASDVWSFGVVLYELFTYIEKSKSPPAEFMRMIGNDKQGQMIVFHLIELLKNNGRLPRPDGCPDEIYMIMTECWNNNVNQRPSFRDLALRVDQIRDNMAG
JAK3, sequence (P52333 795-1124): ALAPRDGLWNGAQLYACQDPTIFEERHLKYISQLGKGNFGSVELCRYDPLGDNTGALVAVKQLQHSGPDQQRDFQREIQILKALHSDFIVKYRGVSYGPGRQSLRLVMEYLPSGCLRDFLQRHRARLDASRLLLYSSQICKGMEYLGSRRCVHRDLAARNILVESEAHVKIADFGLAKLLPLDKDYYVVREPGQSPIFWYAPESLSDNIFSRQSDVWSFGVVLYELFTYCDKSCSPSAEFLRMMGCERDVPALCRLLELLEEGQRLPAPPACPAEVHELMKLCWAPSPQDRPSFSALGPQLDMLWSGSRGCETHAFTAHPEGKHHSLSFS
JAK1, sequence (P23458 850-1154): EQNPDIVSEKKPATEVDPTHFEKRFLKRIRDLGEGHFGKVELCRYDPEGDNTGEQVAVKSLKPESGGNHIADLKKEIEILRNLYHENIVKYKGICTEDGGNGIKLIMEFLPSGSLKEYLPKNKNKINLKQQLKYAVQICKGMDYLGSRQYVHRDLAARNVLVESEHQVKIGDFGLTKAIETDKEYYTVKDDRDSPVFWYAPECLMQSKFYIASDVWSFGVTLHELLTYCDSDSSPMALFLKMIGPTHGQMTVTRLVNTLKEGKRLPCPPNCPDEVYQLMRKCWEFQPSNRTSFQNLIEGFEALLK

Molecule | IC50 [1] | IC50 [2] | IC50 [3]
N#CC[C@H]1CC[C@H](Nc2nc(-c3cnn4ccccc34)nc(N3CCC(N)CC3)c2F)CC1 [Example 2, (Trans-4-{[6-(4-aminopiperidin-1-yl)-5-fluoro-2-pyrazolo[1,5-a]pyridin-3-ylpyrimidin-4-yl]amino}cyclohexyl)acetonitrile] | 4 nM | 1 nM | 82 nM
O=C(CO)N1CCC[C@@H](Nc2nc(-c3cnn4ccccc34)nc(-c3cn[nH]c3)c2F)C1 [Example 32, 2-((3R)-3-{[5-Fluoro-2-pyrazolo[1,5-a]pyridin-3-yl-6-(1H-pyrazol-4-yl)pyrimidin-4-yl]amino}piperidin-1-yl)-2-oxoethanol] | 4 nM | 0.6 nM | 2 nM
Cc1ccc(-c2cc(N[C@@H]3CCCN(C(=O)CO)C3)nc(-c3cnn4ccccc34)n2)cn1 [Example 99, 2-((3R)-3-{[6-(6-Methylpyridin-3-yl)-2-pyrazolo[1,5-a]pyridin-3-ylpyrimidin-4-yl]amino}piperidin-1-yl)-2-oxoethanol] | 7 nM | 9 nM | 2 nM
3-{(3R)-3-[(6-Methoxy-2-pyrazolo[1,5-a]pyridin-3-ylpyrimidin-4-yl)amino]piperidin-1-yl}-3-oxopropanenitrile [Example 95] | 7 nM | 3 nM | 3 nM
N#CCC(=O)N1CCC[C@@H](Nc2nc(-c3cnn4ccccc34)nc(N3CCC(C(=O)O)CC3)c2F)C1 [Example 31, 1-(6-{[(3R)-1-(Cyanoacetyl)piperidin-3-yl]amino}-5-fluoro-2-pyrazolo[1,5-a]pyridin-3-ylpyrimidin-4-yl)piperidine-4-carboxylic acid] | 2 nM | 0.4 nM | 1 nM
N#CCC(=O)N1CCC[C@@H](Oc2nc(-c3cnn4ccccc34)nc(-c3ccnc(CO)c3)c2F)C1 [Example 73, 3-[(3R)-3-({5-Fluoro-6-[2-(hydroxymethyl)pyridin-4-yl]-2-pyrazolo[1,5-a]pyridin-3-ylpyrimidin-4-yl}oxy)piperidin-1-yl]-3-oxopropanenitrile] | 27 nM | 2 nM | 13 nM
COc1nc(-c2cnn3ccccc23)nc(N[C@@H]2CCCN(C(=O)CO)C2)c1F [Example 42, 2-{(3R)-3-[(5-Fluoro-6-methoxy-2-pyrazolo[1,5-a]pyridin-3-ylpyrimidin-4-yl)amino]piperidin-1-yl}-2-oxoethanol] | 1 nM | 1 nM | 13 nM
CCOC(=O)c1ccc(-c2nc(-c3cnn4ccccc34)nc(N[C@@H]3CCCN(C(=O)CO)C3)c2F)cn1 [Example 38, Ethyl 5-(5-fluoro-6-{[(3R)-1-glycoloylpiperidin-3-yl]amino}-2-pyrazolo[1,5-a]pyridin-3-ylpyrimidin-4-yl)pyridine-2-carboxylate] | 6 nM | 2 nM | 4 nM
N#CCC(=O)N1CCC[C@@H](Oc2nc(-c3cnn4ccccc34)nc(NCCO)c2F)C1 [Example 70, 3-[(3R)-3-({5-Fluoro-6-[(2-hydroxyethyl)amino]-2-pyrazolo[1,5-a]pyridin-3-ylpyrimidin-4-yl}oxy)piperidin-1-yl]-3-oxopropanenitrile] | 8 nM | 3 nM | 28 nM
C[C@H](Nc1nc(-c2cnn3ccccc23)nc(N2CCC(N)CC2)c1F)c1ccc(F)cn1 [Example 11, 6-(4-Aminopiperidin-1-yl)-5-fluoro-N-[(1S)-1-(5-fluoropyridin-2-yl)ethyl]-2-pyrazolo[1,5-a]pyridin-3-ylpyrimidin-4-amine] | 3 nM | 1 nM | 40 nM
N#CCC(=O)N1CCC[C@@H](Oc2nc(-c3cnn4ccccc34)nc(N3CCOCC3)c2F)C1 [Example 53, 3-{(3R)-3-[(5-fluoro-6-morpholin-4-yl-2-pyrazolo[1,5-a]pyridin-3-ylpyrimidin-4-yl)oxy]piperidin-1-yl}-3-oxopropanenitrile] | 3 nM | 0.5 nM | 2 nM
NC(=O)c1nc(-c2cnn3ccccc23)nc(N[C@@H]2CCCN(C(=O)CO)C2)c1F [Example 48, 5-Fluoro-6-{[(3R)-1-glycoloylpiperidin-3-yl]amino}-2-pyrazolo[1,5-a]pyridin-3-ylpyrimidine-4-carboxamide] | 5 nM |  | 13 nM
O=C(COc1nc(-c2cnn3ccccc23)nc(N[C@@H]2CCCN(C(=O)CO)C2)c1F)OCc1ccccc1 [Example 44, Benzyl[(5-fluoro-6-{[(3R)-1-glycoloylpiperidin-3-yl]amino}-2-pyrazolo[1,5-a]pyridin-3-ylpyrimidin-4-yl)oxy]acetate] | 140 nM | 74 nM | 970 nM
N#Cc1cnc(N2CCC[C@@H](Nc3nc(-c4cnn5ccccc45)nc(OCCO)c3F)C2)cn1 [Example 54, 5-((3R)-3-{[5-fluoro-6-(2-hydroxyethoxy)-2-pyrazolo[1,5-a]pyridin-3-ylpyrimidin-4-yl]amino}piperidin-1-yl)pyrazine-2-carbonitrile] |  |  | 7 nM
O=C(O)c1ccc(-c2nc(-c3cnn4ccccc34)nc(N[C@@H]3CCCN(C(=O)CO)C3)c2F)cn1 [Example 79, 5-(5-Fluoro-6-{[(3R)-1-glycoloylpiperidin-3-yl]amino}-2-pyrazolo[1,5-a]pyridin-3-ylpyrimidin-4-yl)pyridine-2-carboxylic acid] | 6 nM |  | 2 nM
N#CCC(=O)N1CCC[C@@H](Oc2nc(-c3cnn4ccccc34)nc(OCCO)c2F)C1 [Example 66, 3-((3R)-3-{[5-Fluoro-6-(2-hydroxyethoxy)-2-pyrazolo[1,5-a]pyridin-3-ylpyrimidin-4-yl]oxy}piperidin-1-yl)-3-oxopropanenitrile] | 4 nM |  | 10 nM
COc1cc(-c2cc(N[C@@H]3CCCN(C(=O)CO)C3)nc(-c3cnn4ccccc34)n2)ccn1 [Example 98, 2-((3R)-3-{[6-(2-Methoxypyridin-4-yl)-2-pyrazolo[1,5-a]pyridin-3-ylpyrimidin-4-yl]amino}piperidin-1-yl)-2-oxoethanol] | 5 nM |  | 3 nM
COc1ccc(-c2nc(-c3cnn4ccccc34)nc(N[C@@H]3CCCN(C(=O)CO)C3)c2F)cn1 [Example 35, 2-((3R)-3-{[5-Fluoro-6-(6-methoxypyridin-3-yl)-2-pyrazolo[1,5-a]pyridin-3-ylpyrimidin-4-yl]amino}piperidin-1-yl)-2-oxoethanol] |  |  | 7 nM
O=C(CO)N1CCC[C@@H](Nc2nc(-c3cnn4ccccc34)nc(-c3ccc(CO)nc3)c2F)C1 [Example 84, 2-[(3R)-3-({5-Fluoro-6-[6-(hydroxymethyl)pyridin-3-yl]-2-pyrazolo[1,5-a]pyridin-3-ylpyrimidin-4-yl}amino)piperidin-1-yl]-2-oxoethanol] | 5 nM |  | 2 nM
CCOCCOc1nc(-c2cnn3ccccc23)nc(N[C@@H]2CCCN(C(=O)CO)C2)c1F [Example 83, 2-((3R)-3-{[6-(2-Ethoxyethoxy)-5-fluoro-2-pyrazolo[1,5-a]pyridin-3-ylpyrimidin-4-yl]amino}piperidin-1-yl)-2-oxoethanol] | 4 nM |  | 32 nM
N#CC[C@H]1CC[C@H](Nc2nc(-c3cnn4ccccc34)nc(NCCO)c2F)CC1 [Example 8, [Trans-4-({5-fluoro-6-[(2-hydroxyethyl)amino]-2-pyrazolo[1,5-a]pyridin-3-ylpyrimidin-4-yl}amino)cyclohexyl]acetonitrile] | 10 nM |  | 16 nM
